Reference: patent publication US20050004029A1, “Methods and compositions for treating vascular leak using hepatocyte growth factor” (priority 2001, published 2005)

Tests used:
[1] = tested on: Human pulmonary artery endothelial cells; assay: Transendothelial electrical resistance (TER) of human pulmonary artery endothelial cell monolayers; type: cell-based; conditions: then HGF 20 ng/ml; for effect on HGF-induced increases in TER, in words: pretreatment LY294002 25 μM, UO126 10 μM, SB203580 20 μM, Ro-31-2880 10 μM
Procedure: (§1) Bovine pulmonary artery endothelial cells were purchased from the American Type Culture Collection (ATCC®, Rockville, Md.) and utilized at passage 19-24. Cells were maintained in Medium 199 (Life Technologies, Rockville, Md.) supplemented with 20% (v/v) colostrum-free bovine serum (CFBS) (Irvine Scientific, Santa Ana, Calif.), 15 μg/ml endothelial cell growth supplement (Upstate Biotechnology, Lake Placid, N.Y.), 1% antibiotic and antimycotic, and 0.1 mM non-essential amino acids (Life Technologies). Human pulmonary artery endothelial cells were purchased from Clonetics (Walkersville, Md.), cultured in EBM-2 complete medium (Clonetics) and utilized at passage 5-10. Human alveolar epithelial cells (A549) were purchased from ATCC® and cultured in the same medium as the bovine endothelial cells, except that the endothelial cell growth supplement was omitted. All cells were maintained at 37° C. in a humidified atmosphere of 5% CO2 and 95% air. Both endothelial cell types grew to contact-inhibited monolayers with the typical cobblestone morphology (Garcia, J. G. N. et al. (1995) J. Cell. Physiol. 163:510-522; Liu, F. et al. (2001) Am. J. Respir. Cell. Mol. Biol. 24:711-719).
Electrical resistance of EC monolayers was measured using electrical cell impedance sensor system (Applied Biophysics Inc., Troy, N.Y.) as described in Garcia, J. G. N. et al. (2000) J. Appl. Physiol. 89:2333-2343. Cells grown on gold microelectrodes (10^−3 cm^2) in polycarbonate wells act as insulating particles, and the resistance across the monolayers (transendothelial electrical resistance, or TER) is measured in real time. As cells adhere on the microelectrode and intercellular cell contacts are formed or in response to agents which increase junctional integrity, the TER increases (Garcia, J. G. N. et al. (2001) J. Clin. Invest. 108:689-711). In contrast, cell retraction, rounding, or loss of adhesion is reflected by decreases in TER (Garcia, J. G. N. et al. (2000) J. Appl. Physiol. 89:2333-2343). These measurements provide a highly sensitive biophysical assay that indicates the state of cell shape, focal adhesion, and endothelial barrier function (Giaever, I. and Keese, C. R. (1993) Nature 366:591-592; Tiruppathi, C. et al. (1992) Proc. Natl. Acad. Sci. USA 89:7919-7923). All electrical resistance data are presented as normalized values. Briefly, current was applied across the electrodes by a 4000 Hz AC voltage source with an amplitude of 1 V in series with a 1 MΩ resistance to approximate a constant current source (−1 μA). The small gold electrode and the larger counter electrode (1 cm^2) were connected to a phase-sensitive lock-in amplifier (5301A; EG&G Instruments Corp, Princeton, N.J.) with a built in differential preamplifier (5316A; EG&G Instruments Corp.). The in-phase and out-of-phase voltages between the electrodes were monitored in real time with the lock-in amplifier and converted to scalar measurements of transendothelial impedance, of which resistance was the primary focus. Transendothelial electrical resistance was monitored for 30 min to establish a baseline resistance (Ro) which, for human lung endothelium, was typically between 8 to 12×10^3 Ω (wells with R0<7×10^3 Ω or R0 >15×10^3 Ω were rejected). For some experiments, total TER was vectorially resolved into components reflecting resistance to current flow beneath the cell layer (α) and resistance to current flow between adjacent cells (Rb) as described in Garcia et al. (2000) supra utilizing the method of Giaiver and Keese which models the endothelial monolayer mathematically (Giaever, I. and Keese, C. R. (1993) Nature 366:591-592). Thus, changes in α reflect alterations in the net state of cell-matrix adhesion, whereas changes in Rb reflect alterations in the integrity of cell-cell adhesion. TER values from each microelectrode were pooled at discrete time points and plotted versus time as the mean±standard error of the mean (Garcia et al. (2000) supra). […]

[2] = tested on: human endothelial monolayers; assay: F-actin immunofluorescent microscopy (cortical actin ring); type: cell-based; conditions: LY294002 25 μM, 1 hr or SB203580 20 μM, 30 min; HGF 20 ng/ml
Procedure: Endothelial cell monolayers grown on gelatinized cover slips were rinsed with M199 and incubated with agonists in the same medium in a 37° C. incubator (5% CO2). Monolayers were then rinsed with PBS (3×2 min), fixed in 4% paraformaldehyde for 10 min, again rinsed with PBS (3×2 min), and permeabilized with 0.25% Triton X-100 for 5 min. Cells were then washed briefly with PBS (3×2 min), blocked with PBS containing 2% BSA for 30 min and incubated with 1 Unit/mL of Texas Red-X phalloidin (Molecular Probes, Eugene, Oreg.), β-catenin antibody (Transduction Laboratories, Lexington, Ky.), glycogen synthase kinase-3 β (GSK-3β) (Santa Cruz Biotechnology, Inc., Santa Cruz, Calif.), or mono-phosphorylated MLC antisera (see Garcia, J. G. N. et al. (2001) J. Clin. Invest. 108:689-711) for 1 hr. After washing with PBS (3×2 min), cover slips were mounted on slides using SlowFade mounting medium (Molecular Probes). Cells were analyzed using a 60× oil objective on a Nikon Eclipse TE 300 microscope. Images were captured by Sony Digital Photo camera DKC 5000. […]
The effect of HGF on the spatial localization of polymerized actin in human endothelial monolayers was investigated by immunofluorescent microscopy. […] F-actin staining was assessed with Texas red phalloidin and myosin light chain staining evaluated with anti-monophosphorylated myosin light chain polyclonal antibody.

p42/44 ERK = p42/44 ERK activation by phospho-specific immunoblotting; type: cell-based, human; conditions: UO126 10 μM, 30 min; HGF 20 ng/ml, 15 min
Procedure: Endothelial cell monolayers grown to confluence in 12-well plates and challenged with HGF were lysed with 100 μl of 2×SDS sample buffer, and cell lysates were transferred into microcentrifuge tubes and boiled for 5 min. After a brief spin, proteins from 10 μl cell lysates were separated on 12% SDS-PAGE and transferred to nitrocellulose (Schleicher & Schuell, Keene, N.H.) (30V, 18 h). After blocking with PBST (PBS with 0.1% Tween 20) containing 5% non-fat milk for 1 hr, nitrocellulose blots were reacted with primary antibodies diluted in PBST containing 5% BSA for 1 hr, washed with PBST (3×10 min), incubated with peroxidase-conjugated secondary antibodies (goat anti-rabbit IgG, 1:10,000 dilution, Sigma; or goat anti-mouse IgG, 1:10,000 dilution, Bio-Rad Labs, Richmond, Calif.) diluted in PBST with 5% non-fat milk for 1 hr and again washed with PBST (3×10 min). Finally, immunoreactive proteins were detected using ECL. The relative intensities of the protein bands were quantified by scanning densitometry.
The MAP family of kinases (ERK1/2 and p38) are actively involved in agonist-induced endothelial cell actin reorganization and barrier regulation (Verin, A. D. et al. (2000) Am. J. Physiol: Lung Cell Molec. Phys. 279:L360-L370, 2000; Garcia, J. G. N. et al. (2001) J. Clin. Invest. 108:689-711) and have been noted to participate in HGF-mediated cell activation (Liang, C. C. and Chen, H. C. (2001) J. Biol. Chem. 276:21146-21152). These reports were confirmed in human endothelial cell monolayers incubated with HGF (20 ng/ml, for 1, 2, 5, 10, 15, 20, 30, 60, or 120 min) where activation of p42/44 ERK and p38 MAPK by HGF was detected by immunoblotting with antibodies that only recognize the phosphorylated (activated) forms of ERK or p38 MAPK. The activation of ERKs was evident at 5 min, maximal after 10-15 min with a gradual decline thereafter, but remaining sustained above basal levels for more than 2 hrs. […] The onset of HGF-mediated activation of p38 MAPK was similar to ERK, with plateau at 10-15 min. However, the duration of this response was much more truncated than ERK activation, beginning to decline by 20 min and returning to basal value by 1 hr.

[3] = tested on: Bovine Pulmonary Artery Endothelium; assay: Transendothelial electrical resistance (TER) across bovine pulmonary artery endothelium; type: cell-based; conditions: VEGF 100 ng/ml, Sph 1-P 1 μM, HGF 20 ng/ml; for TER response in words: thrombin, 10-60 min; for changes in TER 30 min / changes in TER 60 min / changes in TER 10 min: vs vehicle control, ±SEM, thrombin 100 μM; for changes in TER 10 min: (+) increased, (−) decreased
Procedure: as §1, with “air.” for “air. Both endothelial cell types grew to contact-inhibited monolayers with the typical cobblestone morphology (Garcia, J. G. N. et al. (1995) J. Cell. Physiol. 163:510-522; Liu, F. et al. (2001) Am. J. Respir. Cell. Mol. Biol. 24:711-719).”
Electrical resistance of EC monolayers was measured using electrical cell impedance sensor system (Applied Biophysics Inc., Troy, N.Y.) as described in Garcia, J. G. N. et al. (2000) J. Appl. Physiol. 89:2333-2343. Cells grown on gold microelectrodes (10^−3 cm^2) in polycarbonate wells act as insulating particles, and the resistance across the monolayers (transendothelial electrical resistance, or TER) is measured in real time. As cells adhere on the microelectrode and intercellular cell contacts are formed or in response to agents which increase junctional integrity, the TER increases (Garcia, J. G. N. et al. (2001) J. Clin. Invest. 108:689-711). In contrast, cell retraction, rounding, or loss of adhesion is reflected by decreases in TER (Garcia, J. G. N. et al. (2000) J. Appl. Physiol. 89:2333-2343). These measurements provide a highly sensitive biophysical assay that indicates the state of cell shape, focal adhesion, and endothelial barrier function (Giaever, I. and Keese, C. R. (1993) Nature 366:591-592; Tiruppathi, C. et al. (1992) Proc. Natl. Acad. Sci. USA 89:7919-7923). All electrical resistance data are presented as normalized values. Briefly, current was applied across the electrodes by a 4000 Hz AC voltage source with an amplitude of 1 V in series with a 1 MΩ resistance to approximate a constant current source (−1 μA). The small gold electrode and the larger counter electrode (1 cm^2) were connected to a phase-sensitive lock-in amplifier (5301A; EG&G Instruments Corp, Princeton, N.J.) with a built in differential preamplifier (5316A; EG&G Instruments Corp.). The in-phase and out-of-phase voltages between the electrodes were monitored in real time with the lock-in amplifier and converted to scalar measurements of transendothelial impedance, of which resistance was the primary focus. […] For some experiments, total TER was vectorially resolved into components reflecting resistance to current flow beneath the cell layer (α) and resistance to current flow between adjacent cells (Rb) as described in Garcia et al. (2000) supra utilizing the method of Giaiver and Keese which models the endothelial monolayer mathematically (Giaever, I. and Keese, C. R. (1993) Nature 366:591-592). Thus, changes in α reflect alterations in the net state of cell-matrix adhesion, whereas changes in Rb reflect alterations in the integrity of cell-cell adhesion. TER values from each microelectrode were pooled at discrete time points and plotted versus time as the mean±standard error of the mean (Garcia et al. (2000) supra).

| Compound | effect on HGF-induced increases in TER, in words [1] | TER response in words [3] | changes in TER 30 min [3] | changes in TER 60 min [3] [%] | changes in TER 10 min [3] | other results |
| --- | --- | --- | --- | --- | --- | --- |
| O=c1cc(N2CCOCC2)oc2c(-c3ccccc3)cccc12 [LY294002, reference compound] |  |  |  |  |  | reduction of HGF-induced increase in TER ([1]; inhibitor pretreatment (LY294002 25 μM; Ro-31-2880 10 μM)): > 50% |
| C[S+]([O-])c1ccc(-c2nc(-c3ccncc3)c(-c3ccc(F)cc3)[nH]2)cc1 (stereo not shown) [SB203580, reference compound] | significantly blocked |  |  |  |  | effect on HGF-elicited cortical actin ring formation / actin remodeling [2]: significantly attenuated |
| N#CC(=C(/N)Sc1ccccc1N)/C(C#N)=C(/N)Sc1ccccc1N [UO126, reference compound] | significantly blocked |  |  |  |  | effect on HGF-stimulated ERK activity (p42/44 ERK): completely abolished |
| Thrombin |  | rapidly decreases TER values which begin to abate after 30 min | −50 ± 4% | −14 ± 4 | +30 ± 3% |  |
| VEGF |  | early increase in TER, which then falls to produce mild barrier dysfunction | 0% ± 3% | −20 ± 4 | +30 ± 4% |  |
